Results taken from patent publication US7387888B2, “Coronamycins” (priority 2004, dated 2008).
In brackets after ≈: the same amount, converted by molar mass.

What was measured:
[1] = test system: Candida albicans (ATCC 24433); assay: microbroth dilution assay of human pathogenic yeasts (NCCLS M27A, Alamar Blue); type: cell-based; settings: 24 to 48 hours
Experimental: (§1) Microbroth dilution assays of human pathogenic yeasts were performed as described in the NCCLS M27A (NCCLS, 1997) with the addition of Alamar Blue (Trek Diagnostics Systems, Inc., Westlake, Ohio) as a colorimetric indicator of viability (Espinel-Ingroff et al., 1999, J. Clin. Microbiol. 37: 591-595). All isolates were obtained from the ATCC. The assays were performed in sterile 96 well plates. The total volume per well was 100 μl. Two wells were inoculated for a given concentration. The MIC was defined as that concentration of compound resulting in no visible growth of the test organism after 24 to 48 hours of incubation with the exception of Cryptococcus neoformans which was read at 72 hours. Flucytosine was included as a control antifungal compound.

[2] = test system: Candida albicans (ATCC 90028); assay: as above; type: cell-based; settings: 24 to 48 hours
Experimental: as §1

[3] = test system: Candida krusei (ATCC 6258); assay: as above; type: cell-based; settings: 24 to 48 hours
Experimental: as §1

[4] = test system: Candida parapsilosis (ATCC 22019); assay: as above; type: cell-based; settings: 24 to 48 hours
Experimental: as §1

[5] = test system: Candida parapsilosis (ATCC 90018); assay: as above; type: cell-based; settings: 24 to 48 hours
Experimental: as §1

[6] = test system: Candida tropicalis (ATCC 750); assay: as above; type: cell-based; settings: 24 to 48 hours
Experimental: as §1

[7] = test system: Cryptococcus neoformans (ATCC 32045); assay: as above; type: cell-based; settings: read at 72 hours
Experimental: as §1

[8] = test system: Saccharomyces cerevisiae (ATCC 9763); assay: as above; type: cell-based; settings: 24 to 48 hours
Experimental: as §1

[9] = test system: Plasmodium falciparum strain CSC-1 (Honduras); assay: antimalarial assay against Plasmodium falciparum (3H-phenylalanine uptake); type: cell-based; settings: read-out: IC50 against Plasmodium falciparum
Experimental: All cultures were maintained in a microaerophilic environment containing 1% oxygen/5% CO2 with the balance being nitrogen. […] Control cultures contained the same quantity of DMSO or water as that used in the experimental trials. Data were reported as IC50 values.
Parasite cultures, adjusted to 0.1-0.5% parasitemia by addition of freshly washed human erythrocytes, were pipetted into 96 well culture plates by adding 10 μl of a 50% cell suspension to each well to give a final volume of 5 μl of packed erythrocytes per well. The test compounds in RPMI 1640 were added at 95 μl per well to four wells per each concentration of test compound. Quadruplicate control wells were treated similarly with DMSO or water added without the test compounds present. The cultures were gassed and exposed to radiolabeled ^3[H]-phenylalanine (1 microcurie per well) for the final 24 hour of treatment. Cultures were monitored for bacterial contamination and for parasite viability by Giemsa staining of thin films. Ultimately, the cells were harvested onto glass-fiber filters, followed by liquid scintillation counting. The IC50 for each compound was determined by linear regression analysis using 50% of the control counts as the regression point. The experiment was repeated three times, the data averaged, and the standard deviation of the mean determined.

[10] = test system: human cancer cell line BT20 (breast epithelial cancer); assay: CellTiter 96 cell proliferation assay, BT20; type: cell-based; settings: BT-20, 50% viability, 96 hours incubation
Experimental: (§2) The BT20 cells were grown in the medium recommended by ATCC and were seeded into 96 well clear flat bottom plates at 3000 cells per well in 100 μl. The primary mammary cells were cultured as recommended by the manufacturer in mammary epithelial cell growth media (MEGM®) and were seeded at 3200 cells per well in 100 μl.
(§3) Each plate also contained some wells with cells plus medium only and some wells with medium only as controls. After addition of the compounds, the plates were incubated at 37° C. for 48 hours or 96 hours for the HMEC and BT20 cell lines, respectively.
(§4) The proliferation assay was performed using the manufacturer's protocols; a 20:1 solution of MTS and PMS was mixed and 10 to 40 μl was added to each well depending on the total volume in the wells. The plates were incubated at 37° C. for one to four hours, and the OD490 was determined. The OD reading of all wells was corrected for background by subtracting the reading of wells containing medium only. The wells containing cells only were used as a control for 100% viability.

in vitro = settings: human, primary mammary epithelial cells (HMEC)
Experimental: as §2, §3, §4

Nc1[nH]c(=O)ncc1F [Flucytosine]
MIC [1]: 1.0 μml^−1
MIC [2]: 0.5 μml^−1
MIC [3]: 16 μml^−1
MIC [4]: 0.5 μml^−1
MIC [5]: 0.12 μml^−1
MIC [6]: <=0.06 μml^−1
MIC [7]: 8 μml^−1
MIC [8]: <=0.06 μml^−1

CCN(CC)CCCC(C)Nc1ccnc2cc(Cl)ccc12 (centres unmarked) [chloroquine]
IC50 [9]: 7 ng/mL (≈ 0.0219 µM)

CC(=O)O[C@H]1C(=O)[C@@]2(C)[C@H]([C@H](OC(=O)c3ccccc3)[C@]3(O)C[C@H](OC(=O)[C@H](O)[C@@H](NC(=O)c4ccccc4)c4ccccc4)C(C)=C1C3(C)C)[C@]1(OC(C)=O)CO[C@@H]1C[C@@H]2O [taxol]
IC50 [10]: 9 ng/mL (≈ 0.0105 µM)
IC50 at 48 h (in vitro): 25000 to 30000 ng/mL (≈ 29.3 to 35.1 µM)
